{
  "source": "patent US20220387366A1",
  "about": "“Compositions for Regulating Homeostasis of Cortisol and Improving Sleep Quality and Methods of Use and Production Thereof” (Unigen, Inc., priority 2021, published 2022)",
  "key": {"MT2 receptor": {"molecular_target": "T1, MT2 receptor (Homo sapiens, UniProt P49286)", "T1 construct": "expressed in transfected cells; host or cells: CHO-K1 cells (membranes)", "T1 sequence (P49286 1-362)": "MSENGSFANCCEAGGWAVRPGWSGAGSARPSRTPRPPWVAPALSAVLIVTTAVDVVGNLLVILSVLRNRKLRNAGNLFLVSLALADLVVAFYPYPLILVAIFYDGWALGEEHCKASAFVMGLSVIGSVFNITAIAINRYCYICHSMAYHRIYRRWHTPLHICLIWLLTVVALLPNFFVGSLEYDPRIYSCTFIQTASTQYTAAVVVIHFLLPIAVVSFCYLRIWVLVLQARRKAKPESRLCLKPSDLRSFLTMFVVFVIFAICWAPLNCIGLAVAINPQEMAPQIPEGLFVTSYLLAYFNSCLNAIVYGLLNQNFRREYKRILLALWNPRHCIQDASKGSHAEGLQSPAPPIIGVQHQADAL", "test": "Melatonin receptor MT2 binding assay, displacement of [125I]2-Iodomelatonin"}, "Male BALB/C mice [1]": {"system": "Male BALB/C mice", "test": "Sleep time induced by pentobarbital sodium (36 mg/kg i.p.) after 32 days of dosing", "format": "in vivo", "description": "Male BALB/C mice (18 g˜22 g) were randomly assigned to groups of vehicle control (sterile water); positive control group, melatonin 1 mg/kg BW (0.1 g/L); low dose group, a composition derived from enriched for one or more phenylpropanoid acids and benzoxazinoids 250 mg/kg BW (25 g/L in sterile water); middle dose group, a composition derived from enriched for one or more phenylpropanoid acids and benzoxazinoids 500 mg/kg BW (50 g/L in sterile water); and high dose group, a composition derived from enriched for one or more phenylpropanoid acids and benzoxazinoids 1000 mg/kg BW (100 g/L in sterile water). Each animal received the respective dose daily for 32 consecutive days. 15 min after the last dose, each group of mice was intraperitoneally injected with 36 mg/kg pentobarbital sodium (in 0.1 mL/10 g). The sleep time of each mouse was recorded and the difference of sleep time between a composition derived from enriched for one or more phenylpropanoid acids and benzoxazinoids-treated groups and vehicle control was determined."}, "Male BALB/C mice [2]": {"system": "Male BALB/C mice", "test": "Sleep latency / sleeping incidence with subthreshold pentobarbital sodium (26 mg/kg i.p.) after 32 days of dosing", "format": "in vivo", "conditions": "1 mg/kg", "description": "Male BALB/C mice (18 g˜22 g) were randomly assigned to groups of vehicle control (sterile water); positive control group, melatonin 1 mg/kg BW (0.1 g/L); low dose group, a composition derived from enriched for one or more phenylpropanoid acids and benzoxazinoids 250 mg/kg BW (25 g/L in sterile water); middle dose group, a composition derived from enriched for one or more phenylpropanoid acids and benzoxazinoids 500 mg/kg BW (50 g/L in sterile water); and high dose group, a composition derived from enriched for one or more phenylpropanoid acids and benzoxazinoids 1000 mg/kg BW (100 g/L in sterile water). Each animal received the respective dose daily for 32 consecutive days. Mice from each group were intraperitoneally injected with 26 mg/kg pentobarbital sodium (0.1 mL/10 g BW), 15 min after the last dose to induce subthreshold hypnosis. The numbers of mice that lose the reflex to turnover to the right side over 1 min after injection of pentobarbital sodium were recorded for 30 min. The incidence of sleeping mice was analyzed to compare the difference between the tested substance groups and vehicle control. Latency of sleep is the number of animals with loss of the righting reflex in duration of time elapsed after pentobarbital administrations. […] As a result, the subthreshold dose of pentobarbital was given to each mouse 15 min after the last dose of test materials to assess the effect of materials on sleep latency. Thirty minutes post pentobarbital injection, the number of mice with no reflex to turn over to the right side over the duration of 1 min was recorded. Data were reported as incidence of sleeping. […] These incidences were statistically significant for both the high dose of UP165 and melatonin compared to the vehicle control animals. In comparison, the incidence in the vehicle-treated group was only 20%. Positive trends (60% of mice both in the 250 and 500 mg/kg group) were also observed for the low and mid doses of UP165."}, "Male BALB/C mice [3]": {"system": "Male BALB/C mice", "test": "Acute effect on sleep following a single oral administration", "format": "in vivo", "conditions": "single oral 1 mg/kg", "description": "Male BALB/C mice (18 g˜22 g) were randomly assigned to groups of vehicle control (sterile water); positive control group, melatonin 1 mg/kg BW (0.1 g/L); low dose group, a composition derived from enriched for one or more phenylpropanoid acids and benzoxazinoids 250 mg/kg BW (25 g/L in sterile water); middle dose group, a composition derived from enriched for one or more phenylpropanoid acids and benzoxazinoids 500 mg/kg BW (50 g/L in sterile water); and high dose group, a composition derived from enriched for one or more phenylpropanoid acids and benzoxazinoids 1000 mg/kgBW (100 g/L in sterile water). Mice were administered the respective treatment group and observed for 60 min monitor the direct impact of test compounds on sleep following a single oral administration. When naive mice are placed into a supine position, they instantaneously turn to the upright position. However, mice under the hypnotic dose of pentobarbital remain on the supine position for measurable amount of time. Sleeping was indexed as the disappearance of reflex to turnover to the right side, and mouse was considered asleep when the time to turn over to the side was over 30 s after mouse was treated with a composition derived from enriched for one or more phenylpropanoid acids and benzoxazinoids. In the current study, none of the treatment groups induce sleep following a single oral administration (Table 15)."}, "MT1 receptor": {"molecular_target": "T2, MT1 receptor (Homo sapiens, UniProt P48039)", "T2 construct": "expressed in transfected cells; host or cells: CHO-K1 cells (membranes)", "T2 sequence (P48039 whole entry)": "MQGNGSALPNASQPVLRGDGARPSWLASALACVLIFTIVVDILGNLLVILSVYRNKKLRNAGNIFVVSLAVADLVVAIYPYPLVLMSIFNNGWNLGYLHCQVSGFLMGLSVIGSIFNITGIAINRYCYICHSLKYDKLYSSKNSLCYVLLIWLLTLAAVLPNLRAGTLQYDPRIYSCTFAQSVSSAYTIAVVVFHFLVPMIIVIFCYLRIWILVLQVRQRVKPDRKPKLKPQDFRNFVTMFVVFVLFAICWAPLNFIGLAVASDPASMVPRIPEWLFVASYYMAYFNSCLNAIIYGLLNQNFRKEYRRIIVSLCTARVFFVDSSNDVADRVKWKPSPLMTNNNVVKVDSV", "test": "Melatonin receptor MT1 binding assay, displacement of [125I]2-Iodomelatonin", "description": "Human recombinant melatonin receptors (MT1 and MT2) were expressed in CHO-K1 cells and resuspended in buffer. The membranes containing recombinant receptors were incubated with test compounds in combination with 0.05 nM [125I]2-lodomelatonin for 180 minutes at 25° C. Membranes were immobilized on filters before being washed and the [125I]2-Iodomelatonin was counted. Test compounds that bound to MT1 or MT2 in the same binding site as melatonin displaced [125I]2-lodomelatonin, reducing the count. […] 0.00021 μM Melatonin was used as a positive control to displace [125I]2-Iodomelatonin (Paul et al., 1999; Beresford et al., 1998).\nAll samples were dissolved in 1% DMSO."}, "[4]": {"conditions": "concentration range from 8 ug/mL to 0.015625 μg/mL"}},
  "note": "Marks after values point to notes of the source that are not given here.",
  "data": [
    {"molecule": "O=C(O)CCc1ccc(O)cc1", "note": "[Phloretic acid]", "values": [
      {"measurement": "inhibition at 5 µg/mL", "setting": "MT2 receptor; isolated compounds, 5 μg/mL", "value": 69, "unit": "%"},
      {"measurement": "inhibition at 25 µg/mL", "setting": "MT2 receptor; isolated compounds, 25 μg/mL", "value": 94, "unit": "%"}
    ]},
    {"molecule": "3-methoxy-hydrocoumaric acid", "values": [
      {"measurement": "MT2 receptor binding (inhibition)", "setting": "MT2 receptor; isolated compounds, 0.5 μg/mL", "value": 8.9, "unit": "%"},
      {"measurement": "MT2 receptor binding (inhibition)", "setting": "MT2 receptor; isolated compounds, 2.5 μg/mL", "value": 22.9, "unit": "%"}
    ]},
    {"molecule": "COc1ccc2[nH]cc(CCNC(C)=O)c2c1", "note": "[Melatonin]", "values": [
      {"measurement": "increase in sleep time compared to vehicle control", "setting": "Male BALB/C mice [1]; 1 mg/kg", "value": "12.0 ± 1.3", "unit": "min"},
      {"measurement": "Sleep Time", "setting": "Male BALB/C mice [1]; 1 mg/kg daily for 32 days, Mean ± SD", "value": "42.6 ± 10.7", "unit": "min"},
      {"measurement": "Incidence of sleeping", "setting": "Male BALB/C mice [2]", "value": 80, "unit": "%*"},
      {"measurement": "Sleeping No.", "setting": "Male BALB/C mice [2]; of 15 mice", "value": 12},
      {"measurement": "Incidence of sleeping", "setting": "Male BALB/C mice [2]; listed as melatonin", "value": 80, "unit": "%"},
      {"measurement": "Incidence of sleeping", "setting": "Male BALB/C mice [3]", "value": 0, "unit": "%"},
      {"measurement": "Sleeping No.", "setting": "Male BALB/C mice [3]; of 15 mice", "value": 0}
    ]},
    {"molecule": "COc1ccc2c(c1)OC(O[C@@H]1O[C@H](CO)[C@@H](O)[C@H](O)[C@H]1O)C(=O)N2OC", "note": "(stereo partly drawn) [MW387, 2-(β-D-Glucopyranosyloxy)-4,7-dimethoxy-2H-1,4-benzoxazin-3(4H)-one]", "values": [
      {"measurement": "inhibition at 0.015625 µg/mL", "setting": "MT2 receptor; 0.015625 μg/mL", "value": -4, "unit": "%"},
      {"measurement": "inhibition at 0.03125 µg/mL", "setting": "MT2 receptor; 0.03125 μg/mL", "value": -6, "unit": "%"},
      {"measurement": "inhibition at 0.0625 µg/mL", "setting": "MT2 receptor; 0.0625 μg/mL", "value": -2, "unit": "%"},
      {"measurement": "inhibition at 0.125 µg/mL", "setting": "MT2 receptor; 0.125 μg/mL", "value": -6, "unit": "%"},
      {"measurement": "inhibition at 0.25 µg/mL", "setting": "MT2 receptor; 0.25 μg/mL", "value": -3, "unit": "%"},
      {"measurement": "inhibition at 0.5 µg/mL", "setting": "MT2 receptor; 0.5 μg/mL", "value": 7, "unit": "%"},
      {"measurement": "inhibition at 1 µg/mL", "setting": "MT2 receptor; 1 μg/mL", "value": -2, "unit": "%"},
      {"measurement": "inhibition at 2 µg/mL", "setting": "MT2 receptor; 2 μg/mL", "value": 0, "unit": "%"},
      {"measurement": "inhibition at 4 µg/mL", "setting": "MT2 receptor; 4 μg/mL", "value": 3, "unit": "%"},
      {"measurement": "inhibition at 8 µg/mL", "setting": "MT2 receptor; 8 μg/mL", "value": 4, "unit": "%"},
      {"measurement": "inhibition against MT2 receptor", "setting": "MT2 receptor; [4]", "value": "Neither compound show any inhibition"},
      {"measurement": "inhibition at 0.015625 µg/mL", "setting": "MT1 receptor; 0.015625 μg/mL", "value": 2, "unit": "%"},
      {"measurement": "inhibition at 0.03125 µg/mL", "setting": "MT1 receptor; 0.03125 μg/mL", "value": -3, "unit": "%"},
      {"measurement": "inhibition at 0.0625 µg/mL", "setting": "MT1 receptor; 0.0625 μg/mL", "value": -6, "unit": "%"},
      {"measurement": "inhibition at 0.125 µg/mL", "setting": "MT1 receptor; 0.125 μg/mL", "value": -2, "unit": "%"},
      {"measurement": "inhibition at 0.25 µg/mL", "setting": "MT1 receptor; 0.25 μg/mL", "value": 6, "unit": "%"},
      {"measurement": "inhibition at 0.5 µg/mL", "setting": "MT1 receptor; 0.5 μg/mL", "value": 6, "unit": "%"},
      {"measurement": "inhibition at 1 µg/mL", "setting": "MT1 receptor; 1 μg/mL", "value": 1, "unit": "%"},
      {"measurement": "inhibition at 2 µg/mL", "setting": "MT1 receptor; 2 μg/mL", "value": -1, "unit": "%"},
      {"measurement": "inhibition at 4 µg/mL", "setting": "MT1 receptor; 4 μg/mL", "value": -5, "unit": "%"},
      {"measurement": "inhibition at 8 µg/mL", "setting": "MT1 receptor; 8 μg/mL", "value": 3, "unit": "%"},
      {"measurement": "inhibition against MT1 receptor", "setting": "MT1 receptor; [4]", "value": "Neither compound show any inhibition"}
    ]}
  ]
}
